The record followed here is PubChem BioAssay AID651620 (Broad Institute, 2012).

For the assay, the system named is non-replicating M. tuberculosis, luciferase reporter. Description: inhibitors of non-replicating M. tuberculosis, dose response, luciferase, dry powder (AID 651620).

What is called IC90 is the point of the concentration-response curve where the effect stands at 90%. For `[N-]=[N+]=NCCOCCNC(=O)CCCn1cc(CS(=O)c2nnc(-c3ccc(F)cc3)o2)nn1` (stereo unspecified), the concentration for an effect of 90% (IC90) is 125 µM.
